Source: patent publication US12083139B2, “Use of IGF-2 receptor agonist ligands for treatment of Angelman Syndrome and autism” (New York University, priority 2018, dated 2024)
Read-outs that look alike come from different tables or passages of the source.

Experiments:
Ube3a−/+ (AS) mice [1] = experiment: Novel object recognition (nOR) in AS mice; type: in vivo
Description: (§1) FIG. 1. IGF-2 reverses most behavioral deficits observed in a mouse model of AS. Experimental timelines are shown above graphs. In all experiments mice received a s.c. injection of either vehicle or IGF-2 (↑) 20 min before either training or testing. All data are expressed as the mean±s.e.m. N=8-12 per group. Two-way analysis of variance (ANOVA) followed by Bonferroni post-hoc tests. *P<0.05, **P<0.01, ***P<0.001. (A) Percentage of time spent freezing before (Pre-US) or after (Post-US) the shock delivery during contextual fear conditioning training and at testing at 24 hours (h) after training (Test) of normal mice (wild type, WT), which served as controls and Ube3a−/+ mice (mouse model of AS, also referred to as mice) injected with vehicle or IGF-2. (B) Percent exploration preference for a novel object compared to a familiar object during novel object recognition of WT and Ube3a−/+ mice injected with vehicle or IGF-2, 20 min before training, tested at 4 h and 24 h after training. (C) Percent of correct alternations (% Correct) in a Y-maze of WT and Ube3a−/+ mice injected with vehicle or IGF-2 before testing (Test). (D) Latency to fall off from a rotating rod by WT and Ube3a−/+ mice injected with vehicle or IGF-2, 20 min before Test, and tested again 3 and 7 days later. (E) Time spent burying marbles by WT and Ube3a−/+ mice injected with vehicle or IGF-2, 20 min before Test. (F) Time spent in the center of an open field by WT and Ube3a−/+ mice following a vehicle or IGF-2 injection given 20 min before Test. The bars for each set from left to right are: WT Vehicle, WT IGF-2, Ube3a−/+ Vehicle, and Ube3a−/+ IGF-2.
(§2) FIG. 5. M6P reverses cognitive and motor deficits in AS mice. Experimental timelines are shown above graphs. In all experiments mice received a s.c. injection of either vehicle or 850 μg/Kg of M6P (IGF-2R.L1 or L1)(↑) 20 min before either training or testing. (A) Percent exploration preference for a novel object compared to a familiar object during the nOR paradigm of WT (Control) and Ube3a−/+(AS) mice injected with vehicle or IGF-2R.L1 20 min before training, and tested at 4 h and 24 h after training. N=4/group. Data are expressed as the mean±s.e.m. Two-way analysis of variance (ANOVA) followed by Bonferroni post-hoc tests. *P<0.05, **P<0.01, ***P<0.001. (B) Percent of correct alternations (% Correct) in a Y-maze of WT and AS mice injected with vehicle or M6P before testing (Test). Data are expressed as the mean (±s.e.m.). (C) Hindlimb clasping scores of WT and AS mice injected with vehicle or IGF-2R.L1, 20 min before Test. Hindlimb clasping scores are measured and expressed as following: If the hindlimbs are consistently splayed outward, away from the abdomen, it is assigned a score of 0. If one hindlimb is retracted toward the abdomen for more than 50% of the time suspended, it receives a score of 1. If both hindlimbs are partially retracted toward the abdomen for more than 50% of the time suspended, it receives a score of 2. If its hindlimbs are entirely retracted and touching the abdomen for more than 50% of the time suspended, it receives a score of 3. Data are expressed in scores. B and C: N=8-14 per group. Two-way analysis of variance (ANOVA) followed by Tukey post-hoc tests. *P<0.05, **P<0.01, ***P<0.001.
FIG. 6. PnM6P reverses memory and motor deficits in AS mice. Experimental timelines are shown above graphs. In all experiments mice received a s.c. injection of either vehicle or 850 μg/Kg of phosphonate-M6P (PnM6P) called IGF-2R.L2 (or L2) (↑) 20 min before either training or testing. (A) Percent exploration preference for a novel object compared to a familiar object during the nOR paradigm of WT (Control) and Ube3a−/+ (AS) mice injected with vehicle or L2 before training, and tested at 4 h, 24 h and 5 days (5 d) after training. N=4/group. Data are expressed as the % mean±s.e.m. (B). […]

WT (Control) mice = experiment: Novel object recognition (nOR) in WT mice; type: in vivo
Description: as §1, §2
FIG. 6. PnM6P reverses memory and motor deficits in AS mice. Experimental timelines are shown above graphs. […] Data are expressed as the % mean±s.e.m. […]

Ube3a−/+ (AS) mice [2] = experiment: RotaRod test (accelerating rotating rod) in AS mice; type: in vivo; details: s.c. injection 20 min before test (L2 850 μg/kg)
Description: as §1, with “(D) Latency to fall off from a rotating rod by WT and Ube3a−/+ mice injected with vehicle or IGF-2, 20 min before Test, and tested again 3 and 7 days later. (E) Time spent burying marbles by WT and Ube3a−/+ mice injected with vehicle or IGF-2, 20 min before Test. (F) Time spent in the center of an open field by WT and Ube3a−/+ mice following a vehicle or IGF-2 injection given 20 min before Test. The bars for each set from left to right are: WT Vehicle, WT IGF-2, Ube3a−/+ Vehicle, and Ube3a−/+ IGF-2.” left out
(§3) FIG. 6. […] Data are expressed as the % mean±s.e.m. […]
AS is also associated with robust motor impairments, which again are reproduced in the AS mice. Motor coordination and ability is reliably assessed in mice by placing them on an accelerating rotating rod (RotaRod test). […]

Ube3a−/+ (AS) mice [3] = experiment: Hindlimb clasping in AS mice; type: in vivo; details: 850 μg/kg s.c. 20 min before test
Description: as §2, with “If both hindlimbs are partially retracted toward the abdomen for more than 50% of the time suspended, it receives a score of 2. If its hindlimbs are entirely retracted and touching the abdomen for more than 50% of the time suspended, it receives a score of 3. Data are expressed in scores. B and C: N=8-14 per group. Two-way analysis of variance (ANOVA) followed by Tukey post-hoc tests. *P<0.05, **P<0.01, ***P<0.001.” left out
as §3
L2 injection reversed motor deficits as measured by hindlimb clasping.

IGF-2 receptor = IGF-2 receptor (Homo sapiens, UniProt P11717); details: cited from earlier work
Ube3a−/+ (AS) mice [4] = experiment: Spontaneous alternation in three-arm Y-maze in AS mice; type: in vivo; details: s.c. injection 20 min before test (M6P 850 μg/kg)
Description: as §1, with “(D) Latency to fall off from a rotating rod by WT and Ube3a−/+ mice injected with vehicle or IGF-2, 20 min before Test, and tested again 3 and 7 days later. (E) Time spent burying marbles by WT and Ube3a−/+ mice injected with vehicle or IGF-2, 20 min before Test. (F) Time spent in the center of an open field by WT and Ube3a−/+ mice following a vehicle or IGF-2 injection given 20 min before Test. The bars for each set from left to right are: WT Vehicle, WT IGF-2, Ube3a−/+ Vehicle, and Ube3a−/+ IGF-2.” left out
FIG. 5. […] Data are expressed as the mean±s.e.m. […] Data are expressed as the mean (±s.e.m.). […] Hindlimb clasping scores are measured and expressed as following: If the hindlimbs are consistently splayed outward, away from the abdomen, it is assigned a score of 0. […]

Ube3a−/+ (AS) mice [5] = experiment: Open field (center entry, anxiety-like behavior) in AS mice; type: in vivo; details: s.c. injection 20 min before test
Description: as §1, with “(D) Latency to fall off from a rotating rod by WT and Ube3a−/+ mice injected with vehicle or IGF-2, 20 min before Test, and tested again 3 and 7 days later. (E) Time spent burying marbles by WT and Ube3a−/+ mice injected with vehicle or IGF-2, 20 min before Test. (F) Time spent in the center of an open field by WT and Ube3a−/+ mice following a vehicle or IGF-2 injection given 20 min before Test. The bars for each set from left to right are: WT Vehicle, WT IGF-2, Ube3a−/+ Vehicle, and Ube3a−/+ IGF-2.” left out
To measure the effect of IGF-2 on anxiety-like behavior we employed open field and measured center entry (which measures anxiety behavior): No effect of IGF-2 treatment was found on AS mice, which remained altered compared to the behavior of normal mice (FIG. 1F).

Ube3a−/+ (AS) mice [6] = experiment: Marble-burying test in AS mice; type: in vivo; details: s.c. injection 20 min before test
Description: as §1, with “(F) Time spent in the center of an open field by WT and Ube3a−/+ mice following a vehicle or IGF-2 injection given 20 min before Test. The bars for each set from left to right are: WT Vehicle, WT IGF-2, Ube3a−/+ Vehicle, and Ube3a−/+ IGF-2.” left out

[7] = test system: Ube3a−/+ mice (mouse model of AS); experiment: Contextual fear conditioning (CFC) in AS mice; type: in vivo; details: s.c. injection 20 min before training, test 24 h after training
Description: FIG. 1. IGF-2 reverses most behavioral deficits observed in a mouse model of AS. Experimental timelines are shown above graphs. In all experiments mice received a s.c. injection of either vehicle or IGF-2 (↑) 20 min before either training or testing. All data are expressed as the mean±s.e.m. N=8-12 per group. Two-way analysis of variance (ANOVA) followed by Bonferroni post-hoc tests. *P<0.05, **P<0.01, ***P<0.001. (A) Percentage of time spent freezing before (Pre-US) or after (Post-US) the shock delivery during contextual fear conditioning training and at testing at 24 hours (h) after training (Test) of normal mice (wild type, WT), which served as controls and Ube3a−/+ mice (mouse model of AS, also referred to as mice) injected with vehicle or IGF-2. (B) Percent exploration preference for a novel object compared to a familiar object during novel object recognition of WT and Ube3a−/+ mice injected with vehicle or IGF-2, 20 min before training, tested at 4 h and 24 h after training. […]
As measures of learning/cognitive responses, which are known to be altered in Angelman Syndrome (AS), we tested different types of aversive and non-aversive memories. […] We tested memory retention one day later (a time that is used to measure long-term memory) by placing mice back in the same chamber and measured their fear-related (freezing) behavior.

[8] = L2 850 μg/kg s.c. before training, 5 d test
[9] = s.c. injection 20 min before training (M6P and L2 850 μg/kg), test 4 h after training
[10] = s.c. injection 20 min before training (M6P and L2 850 μg/kg), test 24 h after training

IGF-2 receptor, sequence (P11717 41-2491): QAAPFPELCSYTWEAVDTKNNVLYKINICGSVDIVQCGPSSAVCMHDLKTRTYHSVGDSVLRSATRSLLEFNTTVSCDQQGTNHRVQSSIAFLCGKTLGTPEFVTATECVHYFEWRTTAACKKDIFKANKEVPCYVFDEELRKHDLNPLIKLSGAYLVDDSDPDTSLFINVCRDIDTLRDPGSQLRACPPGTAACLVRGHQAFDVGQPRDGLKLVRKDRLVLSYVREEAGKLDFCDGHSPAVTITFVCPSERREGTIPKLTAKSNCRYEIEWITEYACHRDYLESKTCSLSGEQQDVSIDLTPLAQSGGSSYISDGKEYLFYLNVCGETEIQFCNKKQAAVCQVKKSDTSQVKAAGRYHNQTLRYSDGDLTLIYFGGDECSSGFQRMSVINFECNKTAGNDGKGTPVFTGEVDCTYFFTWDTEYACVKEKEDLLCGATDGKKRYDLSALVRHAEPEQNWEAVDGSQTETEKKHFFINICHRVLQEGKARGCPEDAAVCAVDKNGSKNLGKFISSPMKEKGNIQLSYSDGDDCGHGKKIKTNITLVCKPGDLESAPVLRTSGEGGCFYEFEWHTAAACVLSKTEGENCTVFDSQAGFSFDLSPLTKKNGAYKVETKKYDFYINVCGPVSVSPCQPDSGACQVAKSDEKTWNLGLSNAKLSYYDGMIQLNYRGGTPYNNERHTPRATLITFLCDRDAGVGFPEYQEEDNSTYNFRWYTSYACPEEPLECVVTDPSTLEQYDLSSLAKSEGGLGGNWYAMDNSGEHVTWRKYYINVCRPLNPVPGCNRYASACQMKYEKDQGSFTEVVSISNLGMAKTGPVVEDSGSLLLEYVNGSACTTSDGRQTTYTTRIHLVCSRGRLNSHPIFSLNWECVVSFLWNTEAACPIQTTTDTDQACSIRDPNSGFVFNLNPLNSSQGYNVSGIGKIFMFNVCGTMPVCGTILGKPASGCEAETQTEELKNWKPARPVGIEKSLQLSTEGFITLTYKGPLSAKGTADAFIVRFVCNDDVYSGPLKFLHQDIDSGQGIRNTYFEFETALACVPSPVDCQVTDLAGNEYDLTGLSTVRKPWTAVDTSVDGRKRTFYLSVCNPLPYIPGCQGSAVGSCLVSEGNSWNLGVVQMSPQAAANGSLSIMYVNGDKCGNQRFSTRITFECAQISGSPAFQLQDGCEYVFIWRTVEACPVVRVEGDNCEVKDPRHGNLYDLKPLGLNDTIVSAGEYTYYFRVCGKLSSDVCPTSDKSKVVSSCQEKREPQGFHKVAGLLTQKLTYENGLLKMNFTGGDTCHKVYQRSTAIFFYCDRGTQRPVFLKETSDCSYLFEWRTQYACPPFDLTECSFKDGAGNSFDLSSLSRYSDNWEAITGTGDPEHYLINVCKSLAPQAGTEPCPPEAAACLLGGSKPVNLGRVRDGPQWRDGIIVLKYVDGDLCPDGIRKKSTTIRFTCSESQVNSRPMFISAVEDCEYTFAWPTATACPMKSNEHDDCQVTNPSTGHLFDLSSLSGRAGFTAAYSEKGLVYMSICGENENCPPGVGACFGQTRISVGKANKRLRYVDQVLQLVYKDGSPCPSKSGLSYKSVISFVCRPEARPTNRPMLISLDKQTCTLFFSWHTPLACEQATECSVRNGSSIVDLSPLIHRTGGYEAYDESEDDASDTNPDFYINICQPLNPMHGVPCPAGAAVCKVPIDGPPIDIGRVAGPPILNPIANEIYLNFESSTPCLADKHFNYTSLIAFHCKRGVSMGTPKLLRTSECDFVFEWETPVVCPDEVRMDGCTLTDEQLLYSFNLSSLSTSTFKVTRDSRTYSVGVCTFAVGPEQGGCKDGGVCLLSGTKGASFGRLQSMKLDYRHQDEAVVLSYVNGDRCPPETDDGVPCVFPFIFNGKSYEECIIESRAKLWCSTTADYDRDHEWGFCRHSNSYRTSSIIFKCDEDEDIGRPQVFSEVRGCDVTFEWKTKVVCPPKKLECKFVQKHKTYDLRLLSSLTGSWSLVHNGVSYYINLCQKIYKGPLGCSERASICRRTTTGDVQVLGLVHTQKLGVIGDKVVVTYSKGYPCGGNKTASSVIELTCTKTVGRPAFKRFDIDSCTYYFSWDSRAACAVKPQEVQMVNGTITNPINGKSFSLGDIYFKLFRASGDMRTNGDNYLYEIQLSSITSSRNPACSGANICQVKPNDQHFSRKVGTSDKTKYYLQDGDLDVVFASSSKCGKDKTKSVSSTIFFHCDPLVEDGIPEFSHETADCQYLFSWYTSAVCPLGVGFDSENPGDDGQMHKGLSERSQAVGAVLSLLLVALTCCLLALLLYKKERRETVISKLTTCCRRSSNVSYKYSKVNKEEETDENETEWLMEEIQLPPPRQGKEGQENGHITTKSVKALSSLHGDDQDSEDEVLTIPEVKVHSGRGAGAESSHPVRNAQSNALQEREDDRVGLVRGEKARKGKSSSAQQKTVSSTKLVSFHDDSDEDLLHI

Molecule | Exploration preference for novel object (nOR memory) (Ube3a−/+ (AS) mice [1]; [8]) | Exploration preference for novel object (nOR memory) (Ube3a−/+ (AS) mice [1]; [9]) | Exploration preference for novel object (nOR memory) (Ube3a−/+ (AS) mice [1]; [10]) | Exploration preference for novel object (nOR memory) (WT (Control) mice; [8]) | Exploration preference for novel object (nOR memory) (WT (Control) mice; s.c. injection 20 min before training (L2 850 μg/kg), test 4 h after training) | Exploration preference for novel object (nOR memory) (WT (Control) mice; [10]) | Latency to fall off rotating rod (motor ability) (Ube3a−/+ (AS) mice [2]) | Hindlimb clasping score (motor deficit) (Ube3a−/+ (AS) mice [3]) | Kd (IGF-2 receptor; one of the two known binding sites, Olson et al., J. Biol. Chem. 2004, read-out: Affinity for IGF-2 receptor) [nM] | Kd (IGF-2 receptor; other of the two known binding sites, Olson et al., J. Biol. Chem. 2004, read-out: Affinity for IGF-2 receptor) [nM] | Correct alternations in Y-maze (exploratory strategy/working memory) (Ube3a−/+ (AS) mice [4]) | Kd (IGF-2 receptor; Williams et al., Science 2012, read-out: Kd for IGF-2 receptor) [nM] | Open field center entry (anxiety-like behavior) (Ube3a−/+ (AS) mice [5]) | Marble burying (time spent burying) (Ube3a−/+ (AS) mice [6]) | Freezing (long-term memory retention) in contextual fear conditioning [7]
COC1OC(CCP(=O)(OCOC(=O)OC(C)C)OCOC(=O)OC(C)C)C(O)C(O)C1O [L2, Methyl 6-Deoxy-6-diisopropyloxycarbonyloxy-methyl-phosphinylmethyl-α-D-mannopyranoside] | none of the groups (vehicle or L2 injected) showed significant memory | significantly reversed the deficit of AS mice in nOR | showed significant memory compared to vehicle-injected groups | none of the groups (vehicle or L2 injected) showed significant memory | significantly enhanced nOR memory retention in WT mice | showed significant memory compared to vehicle-injected groups | significantly improved their motor ability on the RotaRod | returned their hindlimb clasping behavior to control levels | – | – | – | – | – | – | –
O=P(O)(O)OCC1OC(O)C(O)C(O)C1O (stereo not drawn) [M6P, mannose-6-phosphate] | – | reversed memory deficits in AS mice | significant memory retention | – | – | significant memory retention | – | significantly reduced hind limb clasping | ~1 | ~1000 | completely reversed the deficit | – | – | – | –
IGF-2: insulin-like growth factor 2 (IGF-2 or IGF-II), IGF-2 receptor agonist ligand | – | completely reversed the memory deficits of AS mice | significant preference for a novel object | – | – | significant preference for a novel object | significant improvement in motor ability | – | – | – | reverses the repetitive, inflexible behavior | 40 to 60 | No effect | rescued the deficits of the AS mice | completely reversed the memory impairment of AS mice
